In patent US11230541B2, “Heterocyclic compound” (Takeda Pharmaceutical Company Limited, priority 2017, dated 2022) one finds inhibition data, which are given here for 40 compounds.

The target of this test is T1, NMDA receptor composed of four subunits including 2 sets of heterodimers of NR1 and NR2B (Homo sapiens, UniProt Q13224).
T1 construct: host or cells: HEK293 (tetracycline-induced expression)
T1 sequence (Q13224 27-1484, other chains not shown): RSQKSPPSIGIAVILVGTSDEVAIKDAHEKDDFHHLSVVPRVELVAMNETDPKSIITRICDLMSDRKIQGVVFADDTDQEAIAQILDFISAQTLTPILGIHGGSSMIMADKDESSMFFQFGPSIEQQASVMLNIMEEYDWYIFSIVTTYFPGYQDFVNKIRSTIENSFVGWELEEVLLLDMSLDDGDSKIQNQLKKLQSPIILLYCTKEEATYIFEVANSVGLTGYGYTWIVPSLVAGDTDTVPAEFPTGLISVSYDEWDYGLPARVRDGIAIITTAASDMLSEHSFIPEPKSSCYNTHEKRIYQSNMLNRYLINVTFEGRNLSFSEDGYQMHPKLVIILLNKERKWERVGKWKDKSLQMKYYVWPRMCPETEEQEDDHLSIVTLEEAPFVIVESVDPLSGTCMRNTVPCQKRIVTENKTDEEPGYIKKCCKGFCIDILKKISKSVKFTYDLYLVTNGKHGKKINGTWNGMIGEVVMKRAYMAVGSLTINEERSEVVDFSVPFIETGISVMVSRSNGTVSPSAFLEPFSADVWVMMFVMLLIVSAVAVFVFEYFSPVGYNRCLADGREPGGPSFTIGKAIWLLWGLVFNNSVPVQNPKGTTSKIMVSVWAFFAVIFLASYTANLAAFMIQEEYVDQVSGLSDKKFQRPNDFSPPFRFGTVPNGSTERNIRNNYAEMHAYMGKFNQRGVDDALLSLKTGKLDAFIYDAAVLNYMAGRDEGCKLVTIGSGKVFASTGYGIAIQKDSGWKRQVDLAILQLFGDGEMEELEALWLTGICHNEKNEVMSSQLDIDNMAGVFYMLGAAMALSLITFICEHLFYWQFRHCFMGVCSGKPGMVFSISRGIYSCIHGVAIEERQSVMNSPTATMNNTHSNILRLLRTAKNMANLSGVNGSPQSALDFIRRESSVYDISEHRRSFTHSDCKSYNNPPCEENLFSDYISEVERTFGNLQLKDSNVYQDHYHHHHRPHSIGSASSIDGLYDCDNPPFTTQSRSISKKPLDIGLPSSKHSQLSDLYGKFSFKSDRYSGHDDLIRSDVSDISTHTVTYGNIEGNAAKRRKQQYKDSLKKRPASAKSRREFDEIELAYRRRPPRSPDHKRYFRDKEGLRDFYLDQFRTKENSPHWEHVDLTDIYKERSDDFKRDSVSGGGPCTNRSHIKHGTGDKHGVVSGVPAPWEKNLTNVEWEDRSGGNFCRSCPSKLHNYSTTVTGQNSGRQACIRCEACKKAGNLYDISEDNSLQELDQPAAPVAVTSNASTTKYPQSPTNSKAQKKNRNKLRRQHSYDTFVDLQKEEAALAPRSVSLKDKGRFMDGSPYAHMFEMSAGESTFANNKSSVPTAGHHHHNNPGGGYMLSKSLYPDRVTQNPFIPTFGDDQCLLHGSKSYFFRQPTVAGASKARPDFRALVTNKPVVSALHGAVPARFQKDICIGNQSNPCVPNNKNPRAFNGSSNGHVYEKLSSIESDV
The test is described as follows: NR2B Ca2+ influx assay (FLIPR, Fluo-4) in HEK293 cells expressing human GRIN1 and GRIN2B. It counts as cell-based. The settings on record: HEK293, 10 μM final compound concentration, glutamic acid/glycine-induced Ca2+ influx, read-out: inhibitory rate (10 μM compound concentration). The method in brief: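 Inhibition rate was calculated from 5-min cumulative Fluo-4 signal (FLIPR, 3-s reads), using agonist-free buffer wells as 100% inhibition. Compound, 10 μM final, was applied 15 min before adding buffer with 30 μM glutamic acid and glycine to HEK293 cells with tetracycline-induced human NR1/NR2B, in HEPES pH 7.2 with 1.8 mM CaCl2.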
In the case of `COc1ccc2ncn(C)c2c1CNC(=O)c1cc(C)cs1` [Example 43, N-((6-methoxy-1-methyl-1H-benzimidazol-7-yl)-methyl)-4-methylthiophene-2-carboxamide], the inhibition at 10 µM turned out to be 61%. On to `COc1ccc2ncn(C)c2c1CNC(=O)c1ccc(F)c(Cl)c1` [Example 37, 3-chloro-4-fluoro-N-((6-methoxy-1-methyl-1H-benzimidazol-7-yl)methyl)benzamide], for which the inhibition at 10 µM stood at 91%. For the compound `CCc1ccc2ncn(C)c2c1CNC(=O)c1csc(C(F)F)c1` [Example 132, 5-(difluoromethyl)-N-((6-ethyl-1-methyl-1H-benzimidazol-7-yl)methyl)thiophene-3-carboxamide], the inhibition at 10 µM was determined as 90%. Turning to `COc1cc(C(=O)NCc2c(C3CC3)ccc3[nH]ncc23)ccc1Cl` [Example 81, 4-chloro-N-((5-cyclopropyl-1H-indazol-4-yl)methyl)-3-methoxybenzamide], the inhibition at 10 µM worked out at 82%. For `O=C(NCc1cccc2[nH]ncc12)c1cnc(OC(F)F)c(F)c1` [Example 191, 6-(difluoromethoxy)-5-fluoro-N-(1H-indazol-4-ylmethyl)nicotinamide], the inhibition at 10 µM was 94%. `COc1ccc2ncn(C)c2c1CNC(=O)c1cc(F)c(Cl)c(Cl)c1` [Example 55, 3,4-dichloro-5-fluoro-N-((6-methoxy-1-methyl-1H-benzimidazol-7-yl)methyl)benzamide]: the inhibition at 10 µM was found to be 90%.

As for `COc1ccc2ncn(C)c2c1CNC(=O)Nc1ccc(C)c(F)c1` [Example 218, 1-(3-fluoro-4-methylphenyl)-3-((6-methoxy-1-methyl-1H-benzimidazol-7-yl)methyl)urea], the inhibition at 10 µM is 93%. Regarding `CCOc1ncc(C(=O)NCc2c(C3CC3)ccc3[nH]ncc23)cc1F` [Example 119, N-((5-cyclopropyl-1H-indazol-4-yl)methyl)-6-ethoxy-5-fluoronicotinamide], the inhibition at 10 µM stood at 94%. Take `O=C(NCc1cccc2[nH]ncc12)c1cc(F)c(Cl)c(F)c1` [Example 189, 4-chloro-3,5-difluoro-N-(1H-indazol-4-ylmethyl)benzamide]: the inhibition at 10 µM came to 67%. On to `COc1ccc(C(=O)NCc2c(OC)ccc3ncn(C)c23)s1` [Example 48, 5-methoxy-N-((6-methoxy-1-methyl-1H-benzimidazol-7-yl)methyl)thiophene-2-carboxamide], for which the inhibition at 10 µM was determined as 84%. `O=C(NCc1c(C2CC2)ccc2[nH]ncc12)c1ccc(F)c(C(F)(F)F)c1` [Example 85, N-((5-cyclopropyl-1H-indazol-4-yl)methyl)-4-fluoro-3-(trifluoromethyl)-benzamide]: the inhibition at 10 µM was found to be 93%. To `O=C(NCc1c(C2CC2)ccc2[nH]ncc12)c1ccc(C(F)(F)F)c(F)c1` [Example 92, N-((5-cyclopropyl-1H-indazol-4-yl)methyl)-3-fluoro-4-(trifluoro-methyl)benzamide] belongs 93%; to `COc1ccc(C(=O)NCc2c(C)ccc3[nH]nnc23)cc1F` [Example 201, 3-fluoro-4-methoxy-N-((5-methyl-1H-benzotriazol-4-yl)methyl)benzamide], 92%; to `COc1ccc2[nH]ncc2c1CNC(=O)c1ccc(OC(F)(F)F)cc1` [Example 6, N-((5-methoxy-1H-indazol-4-yl)methyl)-4-(trifluoromethoxy)benzamide], 91%. `COc1ccc2ncn(C)c2c1CNC(=O)Nc1cc(F)c(F)c(F)c1` [Example 220, 1-((6-methoxy-1-methyl-lH-benzimidazol-7-yl)methyl)-3-(3,4,5-trifluorophenyl)urea]: the inhibition at 10 µM was determined as 87%. For `O=C(NCc1c(C2CC2)ccc2[nH]ncc12)c1csc(Cl)c1` [Example 69, 5-chloro-N-((5-cyclopropyl-1H-indazol-4-yl)methyl)thiophene-3-carboxamide], the inhibition at 10 µM was found to be 93%. Turning to `CCOc1ccc2ncn(C)c2c1CNC(=O)c1ccc(C(F)(F)F)cc1` [Example 128, N-((6-ethoxy-1-methyl-1H-benzimidazol-7-yl)methyl)-4-(trifluoromethyl)-benzamide], the inhibition at 10 µM is 91%. Consider `O=C(NCc1c(C2CC2)ccc2[nH]ncc12)c1ccc(C(F)F)s1` [Example 155, N-((5-cyclopropyl-1H-indazol-4-yl)methyl)-5-(difluoromethyl)-thiophene-2-carboxamide], for which the inhibition at 10 µM came to 92%. To `COc1ccc2ncn(C)c2c1CNC(=O)c1cnc(OC)c(F)c1` [Example 10, 5-fluoro-6-methoxy-N-((6-methoxy-1-methyl-1H-benzimidazol-7-yl)methyl)nicotinamide] belongs 92%; to `COc1ccc2ncn(C)c2c1CNC(=O)Nc1cccc(Cl)c1` [Example 219, 1-(3-chlorophenyl)-3-((6-methoxy-1-methyl-1H-benzimidazol-7-yl)methyl)urea], 72%; to `COc1c(F)cc(C(=O)NCc2c(C3CC3)ccc3[nH]ncc23)cc1F` [Example 17, N-((5-cyclopropyl-1H-indazol-4-yl)methyl)-3,5-difluoro-4-methoxybenzamide], 93%. For `CCOc1ncc(C(=O)NCc2c(C3CC3)ccc3[nH]ncc23)cc1Cl` [Example 104, 5-chloro-N-((5-cyclopropyl-1H-indazol-4-yl)methyl)-6-ethoxynicotinamide], the inhibition at 10 µM worked out at 90%. The figure for `Cc1ccc2[nH]nnc2c1CNC(=O)c1ccc(OC(F)F)cc1` [Example 265, 4-(difluoromethoxy)-N-((5-methyl-1H-benzotriazol-4-yl)methyl)benzamide] is 97%; for `COc1ncc(C(=O)NCc2c(C3CC3)ccc3[nH]ncc23)cc1F` [Example 96, N-((5-cyclopropyl-1H-indazol-4-yl)methyl)-fluoro-6-methoxy-nicotinamide] it is 93%; for `Cc1ccc(C(=O)NCc2c(C)ccc3[nH]nnc23)cc1F` [Example 200, 3-fluoro-4-methyl-N-((5-methyl-1H-benzotriazol-4-yl)methyl)benzamide] it is 85%.

Consider `COc1ccc2nc(C)n(C)c2c1CNC(=O)c1cc(F)c(OC(F)F)c(F)c1` [Example 246, 4-(difluoromethoxy)-3,5-difluoro-N-((6-methoxy-1,2-dimethyl-1H-benzimidazol-7-y1)methyl)benzamide], for which the inhibition at 10 µM stood at 87%. Regarding `O=C(NCc1cccc2[nH]ncc12)c1ccc(OC(F)F)cc1` [Example 183, 4-(difluoromethoxy)-N-(1H-indazol-4-ylmethyl)benzamide], the inhibition at 10 µM was 87%.

Turning to `COc1ccc2ncn(C)c2c1CNC(=O)c1ccc(C)c(F)c1` [Example 14, 3-fluoro-N-((6-methoxy-1-methyl-1H-benzimidazol-7-yl)methyl)-4-methylbenzamide], the inhibition at 10 µM was 92%. To `Cc1ccc2ncn(C)c2c1CNC(=O)c1ccc(C(F)F)s1` [Example 137, 5-(difluoromethyl) -N-((1,6-dimethyl-1H-benzimidazol-7-yl)methyl)thiophene-2-carboxamide] belongs 72%; to `Cc1ccc2[nH]nnc2c1CNC(=O)c1ccc(OC(F)F)c(F)c1` [Example 263, 4-(difluoromethoxy)-3-fluoro-N-((5-methyl-1H-benzotriazol-4-yl)methyl)benzamide], 98%. For the compound `Cc1ccc(C(=O)NCc2c(C3CC3)ccc3[nH]ncc23)cc1Cl` [Example 74, 3-chloro-N-((5-cyclopropyl-1H-indazol-yl)methyl)-4-methylbenzamide], the inhibition at 10 µM was 93%. With `COc1ccc2[nH]nnc2c1CNC(=O)c1ccc(OC(F)(F)F)c(F)c1` [Example 227, 3-fluoro-N-((5-methoxy-1H-benzotriazol-4-yl)methyl)-4-(trifluoromethoxy)-benzamide], the inhibition at 10 µM was found to be 97%. Turning to `Cc1ccc2ncn(C)c2c1CNC(=O)c1ccc(OC(F)F)cc1` [Example 135, 4-(difluoromethoxy)-N-((1,6-dimethyl-1H-benzimidazol-7-yl)methyl)benzamide], the inhibition at 10 µM was 90%. For `CCc1ccc2ncn(C)c2c1CNC(=O)c1cnc(OC(F)F)c(F)c1` [Example 143, 6-(difluoromethoxy)-N-((6-ethyl-1-methyl-1H-benzimidazol-7-yl)methyl)-5-fluoronicotinamide], the inhibition at 10 µM was 91%. With `O=C(NCc1c(C2CC2)ccc2[nH]ncc12)c1ccc(Cl)cc1` [Example 102, 4-chloro-N-((5-cyclopropyl-1H-indazol-yl)methyl)benzamide], the inhibition at 10 µM was determined as 92%. With `O=C(NCc1c(C2CC2)ccc2[nH]ncc12)c1ccc(C(F)F)c(F)c1` [Example 118, N-((5-cyclopropyl-1H-indazol-4-yl)methyl)-4-(difluoromethyl)-3-fluorobenzamide], the inhibition at 10 µM amounted to 94%. Consider `O=C(NCc1cccc2[nH]ncc12)c1ccc(F)c(Cl)c1` [Example 186, 3-chloro-4-fluoro-N-(1H-indazol-4-ylmethyl)benzamide], for which the inhibition at 10 µM stood at 56%. Regarding `O=C(NCc1c(F)ccc2[nH]ncc12)c1ccc(OC(F)(F)F)cc1` [Example 273, N-[(5-fluoro-1H-indazol-4-yl)methyl]-4-(trifluoromethoxy)-benzamide], the inhibition at 10 µM was determined as 93%. For `O=C(NCc1cccc2[nH]ncc12)c1cc(F)c(C(F)(F)F)c(F)c1` [Example 173, 3,5-difluoro-N-(1H-indazol-4-ylmethyl)-4-(trifluoromethyl)-benzamide], the inhibition at 10 µM is 80%. Regarding `COc1ccc(C(=O)NCc2cccc3[nH]ncc23)cc1F` [Example 181, 3-fluoro-N-(1H-indazol-4-ylmethyl)-4-methoxybenzamide], the inhibition at 10 µM was 67%.
